# Structures can show the parent of a compound that is named as a salt.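 Five compound concentrations were applied to cells in 96-well plates for 48 hours; endpoints were derived by simple linear interpolation of the resulting dose-response curve. The concentration for 50% growth inhibition is given as GI50.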 The source made the active and inactive calls. Rule as the data show it: active = GI50 up to about 1.1 µM and inactive = higher.
# Columns and labels:
# Assay in all cases: NCI tumour cell line growth inhibition, 48 h
# 786-0 = test system: 786-0
# A498 = test system: A498
# CCRF-CEM = test system: CCRF-CEM
# DMS-114 = test system: DMS-114
# DMS-273 = test system: DMS-273
# HL-60 = test system: HL-60
# HOP-92 = test system: HOP-92
# HT-29 = test system: HT-29
# IGROV-1 = test system: IGROV-1
# K562 = test system: K562
# KM-20L2 = test system: KM-20L2
# KM12 = test system: KM12
# LOX IMVI = test system: LOX IMVI
# LXFL 529 = test system: LXFL 529
# M14 = test system: M14
# M19-MEL = test system: M19-MEL
# Malme-3M = test system: Malme-3M
# NCI-H23 = test system: NCI-H23
# NCI-H460 = test system: NCI-H460
# OVCAR-5 = test system: OVCAR-5
# OVCAR-8 = test system: OVCAR-8
# SF-268 = test system: SF-268
# SF-539 = test system: SF-539
# SK-MEL-28 = test system: SK-MEL-28
# SK-MEL-2 = test system: SK-MEL-2
# SK-MEL-5 = test system: SK-MEL-5
# SK-OV-3 = test system: SK-OV-3
# SNB-19 = test system: SNB-19
# SNB-75 = test system: SNB-75
# SNB-78 = test system: SNB-78
# SW-620 = test system: SW-620
# TK-10 = test system: TK-10
# UACC-62 = test system: UACC-62
# XF498 = test system: XF498
# A549 = test system: A549
# ACHN = test system: ACHN
# CAKI-1 = test system: CAKI-1
# COLO 205 = test system: COLO 205
# DLD-1 = test system: DLD-1
# EKVX = test system: EKVX
# HCC 2998 = test system: HCC 2998
# HCT-116 = test system: HCT-116
# HCT-15 = test system: HCT-15
# HOP-18 = test system: HOP-18
# HOP-62 = test system: HOP-62
# MOLT-4 = test system: MOLT-4
# NCI-H226 = test system: NCI-H226
# NCI-H522 = test system: NCI-H522
# OVCAR-3 = test system: OVCAR-3
# RPMI-8226 = test system: RPMI-8226
# SF-295 = test system: SF-295
# SN12C = test system: SN12C
# U-251 = test system: U-251
# UACC-257 = test system: UACC-257
# UO-31 = test system: UO-31
structure (smiles),measurement,setting,value
COc1ccc2cc3[n+](cc2c1OC)CCc1cc2c(cc1-3)OCO2 [BERBERINE SULFATE],GI50,786-0,51.5 µM (inactive)
same,GI50,A498,> 100 µM (inactive)
same,GI50,CCRF-CEM,10.5 µM (inactive)
same,GI50,DMS-114,4.33 µM (inactive)
same,GI50,DMS-273,17.2 µM (inactive)
same,GI50,HL-60,14 µM (inactive)
same,GI50,HOP-92,23.6 µM (inactive)
same,GI50,HT-29,32.6 µM (inactive)
same,GI50,IGROV-1,36 µM (inactive)
same,GI50,K562,14.1 µM (inactive)
same,GI50,KM-20L2,30.8 µM (inactive)
same,GI50,KM12,4.88 µM (inactive)
same,GI50,LOX IMVI,43.1 µM (inactive)
same,GI50,LXFL 529,4.37 µM (inactive)
same,GI50,M14,32.5 µM (inactive)
same,GI50,M19-MEL,7.6 µM (inactive)
same,GI50,Malme-3M,9.62 µM (inactive)
same,GI50,NCI-H23,8.34 µM (inactive)
same,GI50,NCI-H460,17.9 µM (inactive)
same,GI50,OVCAR-5,> 91.8 µM (inactive)
same,GI50,OVCAR-8,18.1 µM (inactive)
same,GI50,SF-268,6.15 µM (inactive)
same,GI50,SF-539,33.8 µM (inactive)
same,GI50,SK-MEL-28,19.3 µM (inactive)
same,GI50,SK-MEL-2,15.5 µM (inactive)
same,GI50,SK-MEL-5,5.07 µM (inactive)
same,GI50,SK-OV-3,> 80.9 µM (inactive)
same,GI50,SNB-19,8.13 µM (inactive)
same,GI50,SNB-75,27.5 µM (inactive)
same,GI50,SNB-78,34.4 µM (inactive)
same,GI50,SW-620,30.1 µM (inactive)
same,GI50,TK-10,> 100 µM (inactive)
same,GI50,UACC-62,17.8 µM (inactive)
same,GI50,XF498,14 µM (inactive)
COc1ccc2c(c1)CC[C@@H]1C2CC[C@]2(C)C(=O)NC(=O)CC12 (stereo partly specified),GI50,786-0,> 100 µM (inactive)
same,GI50,A498,> 100 µM (inactive)
same,GI50,A549,> 100 µM (inactive)
same,GI50,ACHN,> 100 µM (inactive)
same,GI50,CAKI-1,> 100 µM (inactive)
same,GI50,CCRF-CEM,88.3 µM (inactive)
same,GI50,COLO 205,> 100 µM (inactive)
same,GI50,DLD-1,> 100 µM (inactive)
same,GI50,DMS-273,65.8 µM (inactive)
same,GI50,EKVX,84.1 µM (inactive)
same,GI50,HCC 2998,53.3 µM (inactive)
same,GI50,HCT-116,> 100 µM (inactive)
same,GI50,HCT-15,> 100 µM
same,GI50,HL-60,43.6 µM (inactive)
same,GI50,HOP-18,26 µM (inactive)
same,GI50,HOP-62,> 100 µM (inactive)
same,GI50,HOP-92,> 100 µM (inactive)
same,GI50,HT-29,56.2 µM (inactive)
same,GI50,IGROV-1,> 100 µM (inactive)
same,GI50,K562,25.2 µM (inactive)
same,GI50,KM-20L2,> 100 µM (inactive)
same,GI50,KM12,> 100 µM (inactive)
same,GI50,LOX IMVI,> 100 µM (inactive)
same,GI50,LXFL 529,59.3 µM (inactive)
same,GI50,M14,> 100 µM (inactive)
same,GI50,M19-MEL,> 100 µM (inactive)
same,GI50,MOLT-4,61.8 µM (inactive)
same,GI50,Malme-3M,> 100 µM (inactive)
same,GI50,NCI-H226,67.5 µM (inactive)
same,GI50,NCI-H23,> 100 µM (inactive)
same,GI50,NCI-H460,> 100 µM (inactive)
same,GI50,NCI-H522,> 100 µM (inactive)
same,GI50,OVCAR-3,> 100 µM (inactive)
same,GI50,OVCAR-5,> 100 µM (inactive)
same,GI50,OVCAR-8,> 100 µM (inactive)
same,GI50,RPMI-8226,> 100 µM (inactive)
same,GI50,SF-268,> 100 µM (inactive)
same,GI50,SF-295,> 100 µM (inactive)
same,GI50,SF-539,> 100 µM (inactive)
same,GI50,SK-MEL-2,> 100 µM (inactive)
same,GI50,SK-MEL-5,78.3 µM (inactive)
same,GI50,SK-OV-3,> 100 µM (inactive)
same,GI50,SN12C,> 100 µM (inactive)
same,GI50,SNB-19,> 100 µM (inactive)
same,GI50,SNB-78,> 100 µM (inactive)
same,GI50,SW-620,> 100 µM (inactive)
same,GI50,TK-10,> 100 µM (inactive)
same,GI50,U-251,> 100 µM (inactive)
same,GI50,UACC-257,> 100 µM (inactive)
same,GI50,UACC-62,> 100 µM (inactive)
same,GI50,UO-31,97.7 µM (inactive)
same,GI50,XF498,> 100 µM (inactive)

# Source: ChEMBL document CHEMBL1201862, “PubChem BioAssay data set” (2004)
